From patent publication US20110230450A1, “PLATELET-ACTIVATING FACTOR (PAF) ANALOGS AND USES THEREOF” (Vascular Biogenics Lts, priority 2007, published 2011)

Legend:
[1] = system: tyrosine phosphorylation in peritoneal macrophages; assay: Western blot of phosphotyrosine in peritoneal macrophages; assay type: cell-based; details: thioglycolate-stimulated peritoneal macrophages, 20 μg/ml, 10 minutes (FIG. 10)
Procedure: Western blot: Thioglycolate-stimulated peritoneal macrophages were treated for 10 minutes with 20 μg/ml of CI-302. 20 μg/ml of phosphatidylcholine or solvent served as negative controls, whereas CI-201 served as a positive control. Whole cell lysates were resolved by SDS-PAGE on 10% Tris/HCl denaturing gel, transferred to nitrocellulose membranes and blotted with anti-phosphotyrosine antibody. Blotting with anti-ERK1/2 antibody served as a loading control.

[2] = system: collagen-induced arthritis; assay: Collagen-induced arthritis (CIA), arthritis score; assay type: in vivo, DBA/1 male mice; details: 0.4 mg/kg by gavage daily from day 22 to day 39, CIA mouse model (FIG. 9)
Procedure: Collagen-induced arthritis (CIA) induction: DBA/1 male mice were immunized to induce arthritis by a collagen injection containing complete Freund's adjuvant (CFA) in the base of the tail (day 0) and a booster shot in the flank (day 21). Mice were followed for arthritis development until day 39. Administration by gavage of the tested compounds and control substances began on day 22 and was carried out on a daily basis (6 times per week).
The severity of arthritis was assessed as follows:
Each paw is scored on a scale of 0-4 for the degree of swelling, erythema, and deformity of the joints (maximum score 16 per animal) as follows [Brackertz et al., 1977]:
0=normal 1=slight erythema and/or swelling of the ankle or wrist or toes 2=moderate erythema and/or swelling of the ankle or wrist 3=severe erythema and/or swelling of the ankle or wrist (or moderate in combination of all toes) 4=complete erythema and swelling of toes or fingers and ankle or wrist, and inability to bend the ankle or wrist

[3] = system: IL-12/23 p40; assay: IL-12/23 p40 production by peptidoglycan-activated BMDCs (ELISA); assay type: cell-based, mouse; details: BMDCs activated with 10 μg/ml peptidoglycan
Procedure: (§1) Generation of bone-marrow derived dendritic cells (BMDC's): Bone-marrow was flushed out with cold RPMI-1640 medium from mice femur and tibia. A cell suspension was prepared and erythrocytes were removed using red blood cell (RBC) lysis buffer (Beit Haemek, Israel). Cells were washed in phosphate buffer saline (PBS) (Beit Haemek, Israel), and incubated at 4° C. for 15 minutes in buffer containing PBS and 0.5% bovine serum albumin (BSA) with mouse B220 and CD90 microbeads (Miltenyi biotech, Bergisch Gladbach, Germany). Cells were then washed, resuspended in the same buffer, and depleted from B and T cells on a Midi-Macs separation unit through a LD or LS column (Miltenyi Biotech). The depleted cells were then counted, washed and seeded (10^6/ml) in medium containing RPMI-1640 medium, L-glutamine, β-mercaptoethanol, 10% fetal calf serum (FCS), antibiotics (penicillin, streptomycin) and 20 ng/ml of mouse granulocyte-macrophage colony-stimulating factor (GM-CSF) (Peprotech, Rehovot, Israel). Medium was replaced every other day and cells were used for subsequent experiments on days 5-6 post culturing.
Cytokine analysis: For the detection of cytokine production, supernatants from 24-hour post-treatment BMDCs were tested with Duoset ELISA kits for mouse IL12/23 p40 (R&D systems, Minneapolis, Minn.). […]

[4] = system: IL-12/23 p40; assay: q-PCR for p40 mRNA in peptidoglycan-activated CD11c+ BMDCs; assay type: cell-based, mouse; details: 20 μg/ml for 1 hour, then 10 μg/ml peptidoglycan for 2, 3 and 4 hours, normalized to GAPDH (FIG. 6)
Procedure: as §1, with “Medium was replaced every other day and cells were used for subsequent experiments on days 5-6 post culturing.” left out
Preparation of RNA, cDNA and Quantitative Real Time PCR (Q-PCR): RNA was prepared from cells using an RNeasy mini kit (Qiagen, Valencia, Calif.). […] All real time quantitative PCR (q-PCR) reactions were performed using LightCycler Taqman master (Roche Diagnostics, Mannheim, Germany) and the LightCycler (Roche). […]

[5] = system: MOG induced EAE; assay: MOG peptide-induced experimental autoimmune encephalomyelitis (EAE), clinical score; assay type: in vivo, mice; details: from 5 days before to 5 days after MOG 35-55 immunization (FIG. 7)
Procedure: Mice: Female 8-10 week old […] mice were purchased from Harlan Laboratories (Israel). EAE (experimental autoimmune encephalomyelitis) induction: Mice were immunized subcutaneously with an emulsion containing 1.5 mg/ml MOG peptide 35-55 ([…]) (Sigma-Aldrich, Rehovot, Israel) and 2.5 mg/ml complete Freund's adjuvant (CFA), 100 μl in each flank. Pertussis toxin (500 ng in 500 μl PBS) was administered intra-peritoneally immediately and 48 hours after immunization. For prevention of EAE, CI-302 or PBS was given orally once a day for 10 consecutive days beginning 5 days before immunization. The severity of EAE was assessed utilizing clinical scores determined as follows: 0=normal, 1=limp tail, 2=weakness of hind limbs, 3=hind leg paralysis, 4=hind and fore leg paralysis, 5=moribund or death

[6] = system: human platelets; assay: Platelet aggregation assay; assay type: cell-based; details: human platelet-rich plasma, 5 minutes; CI-302 in escalating concentrations of up to 1 mM; PAF 0.125-0.25 μM (FIGS. 2-4)
Procedure: Platelet aggregation assay: Platelet-rich plasma was prepared from citrated whole human blood by centrifugation (200 g for 20 minutes). The final platelet concentration was adjusted to 2×10^8 platelets/ml with autologous plasma. CI-302 and PAF dissolved in PBS were added to induce platelet activation while the platelet sample was stirred at 1,000 rpm at 37° C. Aggregation was recorded for 5 minutes using an AggRAM 4-channel aggregometer (AggRAM aggregation Remote Analyzer Module; Helena Laboratories).

[7] = system: pro-inflammatory chemokines and cytokines in spinal cords; assay: q-PCR for pro-inflammatory chemokines and cytokines in spinal cords of EAE mice; assay type: in vivo; details: 0.4 mg/kg oral, 28 days after immunization
Procedure: Preparation of RNA, cDNA and Quantitative Real Time PCR (Q-PCR): RNA was prepared from cells using an RNeasy mini kit (Qiagen, Valencia, Calif.). For cDNA preparation, 1 μg of RNA was combined with oligo-dT for 10 minutes at 70° C., and 1^St strand buffer, dithiothreitol (DTT), deoxynucleotides (dNTP) and super-script reverse transcriptase (SS-II) (Invitrogen, Carlsbad, Calif.) were then added for 50 minutes at 42° C. The reaction was ended by incubation for an additional 15 minutes at 70° C. All real time quantitative PCR (q-PCR) reactions were performed using LightCycler Taqman master (Roche Diagnostics, Mannheim, Germany) and the LightCycler (Roche). For tissue mRNA expression, total RNA was extracted from spinal cord using the RNeasy lipid tissue mini kit RNA. Ready sets of probe with primers for q-PCR were purchased from Applied Biosystems (Foster City, Calif.).
EAE (experimental autoimmune encephalomyelitis) induction: Mice were immunized subcutaneously with an emulsion containing 1.5 mg/ml MOG peptide 35-55 ([…]) (Sigma-Aldrich, Rehovot, Israel) and 2.5 mg/ml complete Freund's adjuvant (CFA), 100 μl in each flank. Pertussis toxin (500 ng in 500 μl PBS) was administered intra-peritoneally immediately and 48 hours after immunization. For prevention of EAE, CI-302 or PBS was given orally once a day for 10 consecutive days beginning 5 days before immunization.

Row | Compound | level of phosphotyrosine [1] | arthritis severity (mean score) [2] | maximal reduction of p40 production ([3]; 1 hour pre-incubation, supernatants 24 hours, highest CI-302 concentration tested (FIG. 5A)) | production of p40 by activated BMDCs ([3]; escalating CI-302 concentrations, ELISA at 24 hours (FIG. 5A)) | p40 mRNA expression [4] | protection against EAE development (mean clinical score) ([5]; 0.04 mg/kg orally once a day) | protection against EAE development (mean clinical score) ([5]; 0.4 mg/kg orally once a day) | platelet aggregation [6] | p40 gene transcription in spinal cord ([7]; relative to PBS-treated group (FIG. 8A)) | p35 gene transcription in spinal cord ([7]; relative to PBS-treated group (FIG. 8B)) | CCL2 (MCP-1) transcription in spinal cord ([7]; relative to PBS-treated group (FIG. 8C)) | IFN-γ transcription in spinal cord ([7]; relative to PBS-treated group (FIG. 8D)) | TNF-α transcription in spinal cord ([7]; relative to PBS-treated group (FIG. 8E)) | CD4 mRNA levels in spinal cord ([7]; relative to control mice (FIG. 8F))
1 | CCCCCCCCCCCCCCCCOC[C@H](COP(=O)([O-])OCC[N+](C)(C)C)OC(=O)CCC [CI-302, 1-hexadecyl-2-butyroyl-sn-glycero-3-phosphocholine] | strongly reduced the level of phosphotyrosine | decreased arthritis severity throughout the study period | 45% | significantly inhibited production of p40 by activated BMDCs in a dose-dependent manner | inhibited p40 mRNA expression considerably | noticeable though milder protection | close to complete protection | no platelet aggregation was observed | reduced | reduced | reduced | reduced | reduced | considerably lower
2 | CCCCCCCCCCCCCCCCOC[C@H](COP(=O)([O-])OCC[N+](C)(C)C)OC(C)=O [PAF, 1-hexadecyl-2-acetoyl-sn-glycero-3-phosphocholine, reference compound] |  |  |  |  |  |  |  | substantial platelet aggregation |  |  |  |  |  | 
3 | L-a-phosphatidylcholine [PC, reference compound] |  |  |  |  | little or no effect |  |  |  |  |  |  |  |  | 
